According to US20110172217A1, “RING-FUSED MORPHOLINE DERIVATIVE HAVING PI3K-INHIBITING ACTIVITY” (Shionogi & Co., Ltd., priority 2008, published 2011):
pIC50, pKi: −log10 of the molar value.

What was measured:
[1] = molecular target: T1, PI-3 kinase γ (Homo sapiens, UniProt P48736); test: PI3Kγ inhibitory activity, PI3-kinase HTRF assay (inhibition ratio); assay type: biochemical; details: 0.5 h, compound at 50 μmol/L
Description: For each compound synthesized in the above Examples, PI3Kγ inhibitory activity was measured.
The PI3Kγ inhibitory activity of a compound was evaluated using PI3-kinase HTRF™ assay (Millipore) according to the following procedure:
To each well of a testing plate, 5 μL of a compound solution containing 10% DMSO (200 μmol/L or 40 μmol/L as the concentration of the compound), 5 μL of a substrate solution (40 μmol/L phosphatidylinositol (4,5)-bisphosphate, 20 mmol/L MgCl2, 10 mmol/L DTT), and 5 μL of a enzyme solution (80 μg/mL PI-3 kinase γ, 10 mmol/L MgCl2, 5 mmol/L DTT) were added, and then allowed to stand for 10 minutes.
Then, 5 μL of a reaction solution (40 μmol/L ATP, 10 mmol/L MgCl2, 5 mmol/L DTT) was added thereto. After reacting for 30 minutes at room temperature, 5 μL of a solution containing EDTA and biotinylated phosphatidylinositol (3,4,5)-triphosphate were added to quench the reaction.
5 μL of a detection reagent containing a europium-labeled anti-GST antibody, the GST-tagged PH domain, and allophycocyanin-labeled streptavidin was added thereto. After 18 hours, HTRF (excitation wavelength: 330 nm, measured wavelengths: 620 nm and 665 nm) was measured.
HTRF ratio was defined as the value obtained by dividing the amount of fluorescence obtained at the measured wavelength 665 nm by the amount of fluorescence obtained at 620 nm. The HTRF ratio in the absence of a compound was defined as 100% activity and the HTRF ratio in the absence of PI-3 kinase γ was defined as 0% activity to calculate an inhibition ratio which was defined as the PI3Kγ inhibitory activity of a compound at 50 μmol/L or 10 μmol/L.

[2] = molecular target: T1, PI-3 kinase γ; test: PI3Kγ inhibitory activity (Ki value); assay type: biochemical; details: test ATP concentration 10 μmol/L
Description: The PI3Kγ inhibitory activity (Ki value) of a compound was evaluated according to the following procedure:
5 μL of a compound solution containing 10% DMSO and 200 μmol/L of a compound was changed to 5 μL of a compound solution containing 10% DMSO and either 200, 64, 20, 6.4, 2, 0.64, or 0.20 μmol/L of the compound (optionally, this is diluted to a lower concentration). Using a method similar to the method for measuring PI3Kγ inhibitory activity, inhibition ratios were measured in the presence of the compound at 50, 16, 5, 1.6, 0.5, 0.16, and 0.05 μmol/L (optionally, a lower concentration). Then an IC50 value was calculated by a logistic approximation method or the linear regression method using two concentrations that across 50% inhibition. Separately, the ATP concentration in the reaction solution (40 μmol/L ATP, 10 mmol/L MgCl2, 5 mmol/L DTT) at the time of the start of a reaction in the absence of the compound was changed to 80, 40, 20, 10, 5, 2.5, 1.25, or 0.625 μmol/L. Then, HTRF ratios were measured by a similar method. The value obtained by subtracting the HTRF ratio at each ATP concentration from the HTRF ratio in the absence of PI-3 kinase γ was defined as the value obtained by multiplying reaction rate (v) at each ATP concentration with a constant. The Michaelis-Menten constant Km was then calculated by the Lineweaver-Burk plot method. The Ki value of a compound was calculated by the following formula.
Ki=IC50 value/(1+10 μmol/L (test ATP concentration)/Km(μmol/L))

[3] = Solubility test in artificial intestinal juice pH 6.8; assay type: physicochemical; details: kinetic from dmso stock, artificial intestinal juice pH 6.8, 1% DMSO, 25° C.
Description: The solubility of a compound was determined under a condition in which 1% DMSO was added. 10 mmol/L compound solution was prepared using DMSO, and then 6 μL of the compound solution was added to 594 μL of artificial intestinal juice in pH 6.8 (to 250 mL of 0.2 mol/L potassium dihydrogen phosphate reagent solution was added 118 mL of 0.2 mol/L NaOH reagent solution and water to provide a final volume of 1000 mL). After standing at 25° C. for 16 hours, the mixed solution was filtered with suction. The filtrate was diluted twice with methanol/water (1/1), and then a concentration in the filtration was measured with HPLC or LC/MS/MS by the absolute calibration method.

[4] = Metabolic stability test, pooled human liver microsome; assay type: in vitro ADME; details: 2 μmol/L compound; human liver microsome 0.5 mg protein/mL, NADPH, 37° C.
Description: After a subject compound was reacted for a certain time using a commercially available pooled human liver microsome, a reacted sample and an unreacted sample are compared to calculate a survival ratio, and then the degree of metabolism in the liver was evaluated.
0.2 mL of a buffer solution (50 mmol/L of Tris-HCl in pH 7.4, 150 mmol/L of potassium chloride, and 10 mmol/L of magnesium chloride) containing a human liver microsome of 0.5 mg protein/mL was reacted in the presence of 1 mmol/L NADPH at 37° C. for 0 or 30 minutes (oxidative reaction). After reacting, 50 μL of the reaction solution was added to 100 μL of a solution of methanol/acetonitrile (1/1 (v/v)), mixed, and then centrifuged at 3000 rpm for 15 minutes. The test compound in the supernatant was quantitated with LC/MS/MS. The amount of the compound at a reaction time of 0 minute was defined as 100% and, based on that, the percentage of the test compound remained after reacting for 30 minutes was calculated.

[5] = molecular target: T2, CYP1A2 (Homo sapiens, UniProt P05177); test: CYP inhibition test, O-de-ethylation of 7-ethoxyresorufin; assay type: in vitro ADME; details: pooled human liver microsome; one of 5 kinds
T2 construct: enzyme: pooled human liver microsome 0.2 mg protein/mL; from tissue; host or cells: pooled human liver microsomes
T2 sequence (P05177 1-516): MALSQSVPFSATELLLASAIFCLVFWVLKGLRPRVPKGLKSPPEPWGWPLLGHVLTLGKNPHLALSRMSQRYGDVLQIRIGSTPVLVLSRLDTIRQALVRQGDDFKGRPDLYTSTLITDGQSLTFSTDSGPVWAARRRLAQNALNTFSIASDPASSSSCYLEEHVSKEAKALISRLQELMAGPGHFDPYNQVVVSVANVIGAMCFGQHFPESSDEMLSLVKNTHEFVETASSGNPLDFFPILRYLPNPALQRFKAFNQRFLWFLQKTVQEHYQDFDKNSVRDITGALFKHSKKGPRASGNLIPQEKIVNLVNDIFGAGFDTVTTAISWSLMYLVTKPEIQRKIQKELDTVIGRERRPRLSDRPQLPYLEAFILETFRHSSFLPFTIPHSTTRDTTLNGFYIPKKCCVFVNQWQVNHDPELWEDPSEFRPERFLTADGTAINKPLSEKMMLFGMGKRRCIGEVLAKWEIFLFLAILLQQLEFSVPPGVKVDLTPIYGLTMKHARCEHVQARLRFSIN
Description: (§1) O-de-ethylation of 7-ethoxyresorufin (CYP1A2), methyl-hydroxylation of tolbutamide (CYP2C9), 4′-hydroxylation of mephenyloin (CYP2C19), O-demethylation of dextromethorphan (CYP2D6), and hydroxylation of terfenadine (CYP3A4), which are typical substrate for metabolic reactions of human main CYP5 molecular species (CYP1A2, 2C9, 2C19, 2D6, and 3A4), were adopted as indexes.
(§2) The reaction conditions are as follows: substrate: 0.5 μmol/L of ethoxyresorufin (CYP1A2), 100 μmol/L of tolbutamide (CYP2C9), 50 μmol/L of S-mephenyloin (CYP2C19), […] of dextromethorphan (CYP2D6), and 1 μmol/L of terfenadine (CYP3A4); reaction time; 15 minutes; reaction temperature: 37° C.; enzyme: pooled human liver microsome 0.2 mg protein/mL; test drug concentration: 1, 5, 10, and 20 μmol/L (4 points).
(§3) In a 96-well plate, as a reaction solution, five kinds of substrates, a human liver microsome, and a test drug were added to 50 mmol/L Hepes buffer solution in the aforementioned ratio. A coenzyme NADPH was added to start a metabolic reaction, which is an index. After reacting at 37° C. for 15 minutes, a solution of methanol/acetonitrile (1/1 (v/v)) was added to quench the reaction. After centrifugation at 3000 rpm for 15 minutes, resorufin (CYP1A2 metabolite) in the supernatant was quantitated with a fluorescence multilabel counter, and hydroxylated tolbutamide (CYP2C9 metabolite), 4′-hydroxylated mephenyloin (CYP2C19 metabolite), […], terfenadine in alcohol form (CYP3A4 metabolite) were quantitated with LC/MS/MS.
(§4) The case wherein only DMSO (a solvent which dissolved a drug) was added to a reaction system was defined as a control (100%). When a test drug solution was added, the remaining activity (%) at each concentration was calculated, and then IC50 was calculated with a concentration and an inhibition ratio by an inverse estimation using a logistic model.

[6] = molecular target: T3, CYP2C9 (Homo sapiens, UniProt P11712); test: CYP inhibition test, methyl-hydroxylation of tolbutamide; assay type: in vitro ADME; details: pooled human liver microsome; one of 5 kinds
T3 construct: enzyme: pooled human liver microsome 0.2 mg protein/mL; from tissue; host or cells: pooled human liver microsomes
T3 sequence (P11712 whole entry): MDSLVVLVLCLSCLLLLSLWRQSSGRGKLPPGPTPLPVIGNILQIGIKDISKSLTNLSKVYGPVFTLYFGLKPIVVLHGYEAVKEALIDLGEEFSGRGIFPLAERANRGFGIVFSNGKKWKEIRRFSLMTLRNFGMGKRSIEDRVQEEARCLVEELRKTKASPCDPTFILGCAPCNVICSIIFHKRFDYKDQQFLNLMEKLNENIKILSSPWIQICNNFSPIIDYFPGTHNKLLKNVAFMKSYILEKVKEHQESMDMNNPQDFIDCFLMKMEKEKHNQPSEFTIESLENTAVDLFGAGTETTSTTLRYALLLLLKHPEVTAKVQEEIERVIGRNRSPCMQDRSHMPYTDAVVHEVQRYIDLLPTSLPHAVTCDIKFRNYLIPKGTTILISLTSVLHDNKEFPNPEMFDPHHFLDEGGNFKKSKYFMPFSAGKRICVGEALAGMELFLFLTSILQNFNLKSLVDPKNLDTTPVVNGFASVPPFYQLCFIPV
Description: as §1, §2, §3, §4

[7] = molecular target: T4, CYP2C19 (Homo sapiens, UniProt P33261); test: CYP inhibition test, 4′-hydroxylation of mephenyloin; assay type: in vitro ADME; details: pooled human liver microsome; one of 5 kinds
T4 construct: enzyme: pooled human liver microsome 0.2 mg protein/mL; from tissue; host or cells: pooled human liver microsomes
T4 sequence (P33261 whole entry): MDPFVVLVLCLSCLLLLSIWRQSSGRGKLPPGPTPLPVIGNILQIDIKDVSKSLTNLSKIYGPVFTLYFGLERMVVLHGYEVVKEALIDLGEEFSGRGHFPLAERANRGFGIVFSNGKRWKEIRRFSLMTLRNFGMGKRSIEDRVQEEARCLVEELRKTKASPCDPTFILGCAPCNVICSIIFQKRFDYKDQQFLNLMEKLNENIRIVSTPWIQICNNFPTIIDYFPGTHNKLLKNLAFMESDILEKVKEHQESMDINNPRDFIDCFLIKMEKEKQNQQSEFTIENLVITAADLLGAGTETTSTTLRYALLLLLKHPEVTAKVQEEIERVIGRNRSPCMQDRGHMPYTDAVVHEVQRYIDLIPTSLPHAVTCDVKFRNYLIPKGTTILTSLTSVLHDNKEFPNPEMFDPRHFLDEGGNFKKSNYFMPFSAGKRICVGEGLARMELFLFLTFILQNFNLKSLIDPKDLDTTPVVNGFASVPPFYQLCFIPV
Description: as §1, §2, §3, §4

[8] = molecular target: T5, CYP2D6 (Homo sapiens, UniProt P10635); test: CYP inhibition test, O-demethylation of dextromethorphan; assay type: in vitro ADME; details: pooled human liver microsome; one of 5 kinds
T5 construct: enzyme: pooled human liver microsome 0.2 mg protein/mL; from tissue; host or cells: pooled human liver microsomes
T5 sequence (P10635 whole entry): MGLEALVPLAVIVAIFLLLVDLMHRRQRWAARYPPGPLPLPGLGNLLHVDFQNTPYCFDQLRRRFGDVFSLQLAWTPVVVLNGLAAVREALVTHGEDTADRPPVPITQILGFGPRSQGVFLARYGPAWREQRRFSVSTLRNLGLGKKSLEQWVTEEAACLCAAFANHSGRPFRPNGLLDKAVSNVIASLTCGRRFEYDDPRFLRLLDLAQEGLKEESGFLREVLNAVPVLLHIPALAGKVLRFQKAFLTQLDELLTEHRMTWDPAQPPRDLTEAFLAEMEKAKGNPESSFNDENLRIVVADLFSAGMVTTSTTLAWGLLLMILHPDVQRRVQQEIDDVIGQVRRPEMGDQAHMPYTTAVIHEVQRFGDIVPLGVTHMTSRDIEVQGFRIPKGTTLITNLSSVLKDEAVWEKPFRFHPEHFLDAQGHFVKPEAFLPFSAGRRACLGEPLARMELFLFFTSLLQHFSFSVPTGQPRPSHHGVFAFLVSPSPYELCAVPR
Description: as §1, §2, §3, §4

[9] = molecular target: T6, CYP3A4 (Homo sapiens, UniProt P08684); test: CYP inhibition test, hydroxylation of terfenadine; assay type: in vitro ADME; details: pooled human liver microsome; one of 5 kinds
T6 construct: enzyme: pooled human liver microsome 0.2 mg protein/mL; from tissue; host or cells: pooled human liver microsomes
T6 sequence (P08684 whole entry): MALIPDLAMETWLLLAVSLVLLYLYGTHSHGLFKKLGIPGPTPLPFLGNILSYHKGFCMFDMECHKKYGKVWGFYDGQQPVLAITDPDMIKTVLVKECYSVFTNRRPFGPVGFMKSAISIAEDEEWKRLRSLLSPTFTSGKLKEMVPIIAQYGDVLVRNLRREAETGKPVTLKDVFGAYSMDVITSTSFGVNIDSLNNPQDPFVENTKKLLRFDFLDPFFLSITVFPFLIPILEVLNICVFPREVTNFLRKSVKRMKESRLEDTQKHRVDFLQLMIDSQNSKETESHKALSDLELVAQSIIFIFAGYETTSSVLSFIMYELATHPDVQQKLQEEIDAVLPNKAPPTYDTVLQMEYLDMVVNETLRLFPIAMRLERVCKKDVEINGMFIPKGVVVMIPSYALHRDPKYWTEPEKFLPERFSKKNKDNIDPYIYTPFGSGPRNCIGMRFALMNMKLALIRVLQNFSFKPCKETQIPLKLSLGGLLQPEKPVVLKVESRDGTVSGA
Description: as §1, §2, §3, §4

[10] = molecular target: T7, human ether-a-go-go related gene (hERG) channel (Homo sapiens, UniProt Q12809); test: hERG test, whole-cell patch-clamp, IKr; assay type: cell-based; details: 1 μmol/L compound; HEK293 cell expressing hERG
T7 construct: expressed in transfected cells; host or cells: HEK293
T7 sequence (Q12809 whole entry): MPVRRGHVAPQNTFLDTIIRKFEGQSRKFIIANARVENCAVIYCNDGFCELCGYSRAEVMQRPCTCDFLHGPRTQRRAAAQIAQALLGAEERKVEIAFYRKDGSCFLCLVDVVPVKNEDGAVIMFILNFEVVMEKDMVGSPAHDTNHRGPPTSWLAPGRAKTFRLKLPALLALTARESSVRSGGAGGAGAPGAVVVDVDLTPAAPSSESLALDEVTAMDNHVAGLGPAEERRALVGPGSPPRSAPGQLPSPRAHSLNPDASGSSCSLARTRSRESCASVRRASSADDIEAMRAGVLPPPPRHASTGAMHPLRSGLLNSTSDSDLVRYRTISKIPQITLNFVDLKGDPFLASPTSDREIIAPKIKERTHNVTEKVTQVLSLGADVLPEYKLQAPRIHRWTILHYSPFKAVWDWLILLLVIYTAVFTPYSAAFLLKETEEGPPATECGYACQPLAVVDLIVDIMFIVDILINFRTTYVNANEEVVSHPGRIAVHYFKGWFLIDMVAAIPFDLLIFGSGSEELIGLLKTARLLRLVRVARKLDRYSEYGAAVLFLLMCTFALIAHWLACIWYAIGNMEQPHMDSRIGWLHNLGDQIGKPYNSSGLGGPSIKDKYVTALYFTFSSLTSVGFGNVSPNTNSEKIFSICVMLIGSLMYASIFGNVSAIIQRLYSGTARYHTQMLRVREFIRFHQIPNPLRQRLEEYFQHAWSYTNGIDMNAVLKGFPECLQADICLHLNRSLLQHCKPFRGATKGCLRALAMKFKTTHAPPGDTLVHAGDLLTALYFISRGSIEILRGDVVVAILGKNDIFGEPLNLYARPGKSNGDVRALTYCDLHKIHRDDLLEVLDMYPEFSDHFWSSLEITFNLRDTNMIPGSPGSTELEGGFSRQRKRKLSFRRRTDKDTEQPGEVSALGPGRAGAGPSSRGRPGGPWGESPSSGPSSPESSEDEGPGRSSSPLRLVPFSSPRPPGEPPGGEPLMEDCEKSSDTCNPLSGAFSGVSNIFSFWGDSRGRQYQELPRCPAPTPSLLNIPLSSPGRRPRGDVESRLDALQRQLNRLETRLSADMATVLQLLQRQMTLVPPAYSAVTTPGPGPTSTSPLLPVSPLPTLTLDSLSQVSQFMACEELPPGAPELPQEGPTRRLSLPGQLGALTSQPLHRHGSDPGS
Description: For the purpose of risk evaluation of QT interval extension of electrocardiogram, the activity on delayed rectification K^+ current (IKr), which plays an important role in a cardiac ventricle repolarization process, was examined using the HEK293 cell that was made to express human ether-a-go-go related gene (hERG) channel.
Using an automatic patch-clamp system (PatchXpress 7000A, Axon Instruments Inc.), by a whole-cell patch-clamp method, after the cell was maintained at a membrane potential of −80 mV, IKr induced upon applying depolarizing stimulation of +50 mV for 2 seconds and further applying repolarizing stimulation of −50 mV for 2 seconds was recorded. After generated electric current became stable, a test substance dissolved at an intended concentration in extracellular fluid (137 mmol/L NaCl, 4 mmol/L KCl, 1.8 mmol/L CaCl2.2H2O, 1 mmol/L MgCl2.6H2O, 10 mmol/L glucose, 10 mmol/L HEPES (4-(2-hydroxyethyl)-1-piperazineethanesulfonic acid), pH=7.4) was applied to the cell for 10 minutes under room temperature condition. From the obtained IKr, the absolute value of the maximum tail current was measured using analysis software (DataXpress ver. 1, Molecular Devices Corporation) and the value of the electric current in a maintained membrane potential as baseline. Moreover, an inhibition ratio for the maximum tail current prior to the application of the test substance was calculated and then compared with a group of media-application (0.1% dimethylsulfoxide solution) to evaluate influence of the test substance on IKr.

T1 sequence (P48736 whole entry): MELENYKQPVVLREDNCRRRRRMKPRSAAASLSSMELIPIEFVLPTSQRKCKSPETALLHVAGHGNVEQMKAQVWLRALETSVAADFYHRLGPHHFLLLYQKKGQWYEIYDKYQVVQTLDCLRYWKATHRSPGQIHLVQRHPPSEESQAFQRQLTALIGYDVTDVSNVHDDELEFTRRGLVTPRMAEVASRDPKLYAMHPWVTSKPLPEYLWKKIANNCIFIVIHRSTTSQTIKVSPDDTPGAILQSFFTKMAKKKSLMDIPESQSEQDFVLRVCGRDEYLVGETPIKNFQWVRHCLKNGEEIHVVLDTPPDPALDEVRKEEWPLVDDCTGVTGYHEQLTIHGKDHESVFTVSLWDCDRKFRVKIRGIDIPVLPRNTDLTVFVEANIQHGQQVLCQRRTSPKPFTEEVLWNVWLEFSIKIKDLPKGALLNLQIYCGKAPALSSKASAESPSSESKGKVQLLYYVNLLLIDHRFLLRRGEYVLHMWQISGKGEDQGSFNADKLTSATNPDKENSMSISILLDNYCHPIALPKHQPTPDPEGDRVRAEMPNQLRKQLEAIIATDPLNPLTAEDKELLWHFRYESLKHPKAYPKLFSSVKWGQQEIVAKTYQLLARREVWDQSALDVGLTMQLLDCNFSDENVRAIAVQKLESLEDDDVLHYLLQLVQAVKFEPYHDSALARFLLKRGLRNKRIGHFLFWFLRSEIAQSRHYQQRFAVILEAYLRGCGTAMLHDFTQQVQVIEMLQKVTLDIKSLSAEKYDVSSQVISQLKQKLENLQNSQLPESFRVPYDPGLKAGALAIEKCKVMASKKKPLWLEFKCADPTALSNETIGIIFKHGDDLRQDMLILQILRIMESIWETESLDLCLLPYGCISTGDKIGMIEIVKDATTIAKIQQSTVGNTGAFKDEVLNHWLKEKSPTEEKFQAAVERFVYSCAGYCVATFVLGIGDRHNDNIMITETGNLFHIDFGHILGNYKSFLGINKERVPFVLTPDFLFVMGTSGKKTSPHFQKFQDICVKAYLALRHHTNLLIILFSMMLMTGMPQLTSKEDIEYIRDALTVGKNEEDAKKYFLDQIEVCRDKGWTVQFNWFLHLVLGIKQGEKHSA

inhibition at 50 µM [1] | pKi [2] | solubility at 16 h [3] | percentage of test compound remained after reacting for 30 minutes [4] | Structure (SMILES) | other results
95% | 7.57 |  |  | COc1ccc(-c2ccc3c(n2)N(C2=NC(=O)C(C)(C)S2)CCO3)cc1OC [Compound I-330] | 
≥ 95% | 7.60 | > 50 µM |  | O=C(O)COc1ccccc1Nc1ccc2c(n1)N(C(=O)Nc1ccccc1)CCO2 [Compound I-248] | 
≥ 95% |  | > 50 µM | 90.1% | CC1(C)SC(N2CCOc3cccnc32)=NC1=O [Compound I-49] | pIC50 [5]: < 4.70; pIC50 [6]: < 4.70; pIC50 [7]: < 4.70; pIC50 [8]: < 4.70; pIC50 [9]: < 4.70
≥ 95% |  | > 50 µM | 100% | O=C(O)CNC(=O)Nc1cnc2c(c1)OCCN2C(=O)Nc1ccccc1 [Compound I-239] | pIC50 [5]: < 4.70; pIC50 [6]: < 4.70; pIC50 [7]: < 4.70; pIC50 [8]: < 4.70; pIC50 [9]: < 4.70
≥ 95% | 7.34 |  | 100% | O=C(O)c1ccc(Nc2ccc3c(n2)N(C(=O)Nc2ccccc2)CCO3)cc1 [Compound I-146] | 
≥ 95% | 7.51 |  |  | O=C(O)c1ccc(-c2ccc3c(n2)N(C(=O)Nc2cccnc2)CCO3)cc1 [Compound I-208] | 
≥ 95% |  | > 50 µM |  | O=C(O)c1ccc(-c2ccc3c(n2)N(C(=O)Nc2ccccc2)CCO3)s1 [Compound I-109] | hERG inhibition ratio for the maximum tail current (IKr) [10]: 1%
≥ 95% |  | > 50 µM | 83% | O=C(O)c1ccc(Nc2cnc3c(c2)OCCN3C(=O)Nc2ccccc2)cc1 [Compound I-139] | hERG inhibition ratio for the maximum tail current (IKr) [10]: 8.7%
91% |  |  |  | CC(C)CCc1ccc2c(n1)N(C(=O)Nc1ccccc1)CCO2 [Compound I-88] | 
≥ 95% |  |  |  | O=C(O)CNC(=O)c1cccc(Nc2ccc3c(n2)N(C(=O)Nc2ccccc2)CCO3)c1 [Compound I-277] | 
≥ 95% |  |  |  | O=C(O)C1CCN(c2ccc3c(n2)N(C(=O)Nc2ccccc2)CCO3)CC1 [Compound I-220] | 
